According to US20060073121A1, “Spray formulation for pungency enhancement in Capsicum” (priority 2004, published 2006):

Tested on: Capsicum frutescens and Capsicum annuum
Assay: Comparative number of folds enhancement of phenyl propanoid intermediates and capsaicinoids by optimized elicitors
Format: in vivo
Description: (§1) The flowers of C. frutescens were sprayed with water, which was taken as control. The fruits of C. frutescens which received different treatments were harvested on 25, 30, 35 and 40 days after anthesis and extracted with 1:2 (w/v) of acetonitrile followed by in-vacuo evaporation and resuspension with 1 ml methanol. The extracted samples were centrifuged at 4000 rpm for 10 minutes. The samples were subjected to High Performance Liquid Chromatography for quantification of phenyl proponoid intermediates and major Capsaicinoids. The mobile phase of linear gradient of 0-100 % acetonitrile in water with pH 3.0 for 35 minutes and 100% was maintained for 2 minutes at 35th minute. The detection was at 236 nm and flow rate was maintained at 1 ml/min. C-18 column of 250×4.6 mm and 5-μm diameter was used. The reagent used was of HPLC grade. The intermediates of phenyl proponoid pathway (Phenylalanine, Cinnamic acid, Coumaric acid, Caffeic acid, Ferulic acid and Vanillylamine) and two major Capsaicinoids (Capsaicin and Dihydrdcapsaicin) were purchased from Sigma Co. A standard stock solution of 1 mg/ml was prepared in methanol. 5 and 10 μl of standards and samples was injected to HPLC for three times and the mean value was calculated. Standard deviation of samples was calculated according to Tukey's method.
as §1, with “C. annuum var Arka Lohit” for “C. frutescens”, “of Acetonitrile” for “of acetonitrile”, “of 0-100%” for “of 0-100 %”, “and Dihydrocapsaicin)” for “and Dihydrdcapsaicin)”

[1] = 35 days after anthesis, optimized concentration: biotic 0.5-1% w/v, abiotic 2.5 μM

| Compound | number of folds enhancement of Caffeic Acid [1] | number of folds enhancement of Capsaicin [1] | number of folds enhancement of Cinnamic Acid [1] | number of folds enhancement of Coumaric Acid [1] | number of folds enhancement of Dihydrocapsaicin [1] | number of folds enhancement of Ferulic Acid [1] | number of folds enhancement of Phenylalanine [1] | number of folds enhancement of Vanillylamine [1] | number of folds enhancement of Caffeic Acid (in vivo) | number of folds enhancement of Capsaicin (in vivo) | number of folds enhancement of Cinnamic Acid (in vivo) | number of folds enhancement of Coumaric Acid (in vivo) | number of folds enhancement of Dihydrocapsaicin (in vivo) | number of folds enhancement of Ferulic Acid (in vivo) | number of folds enhancement of Phenylalanine (in vivo) | number of folds enhancement of Vanillylamine (in vivo) |
| --- | --- | --- | --- | --- | --- | --- | --- | --- | --- | --- | --- | --- | --- | --- | --- | --- |
| CC/C=C\CC1C(=O)CCC1CC(=O)OC (stereo not shown) [Methyl Jasmonate] | 1.63-3.79 folds | 1.65-1.88 folds | 1.42-3.79 folds | 1.25-3.51 folds | 1.41-1.68 folds | 1.59-2.43 folds | 1.36-1.52 folds | 1.68-1.77 folds |  |  |  |  |  |  |  |  |
| O=C([O-])c1ccccc1O.[Na+] [Salicylic Acid sodium salt, Salicylic acid sodium salt] |  |  |  |  |  |  |  |  | 1.45-1.75 folds | 1.26-1.58 folds | 1.36-2.50 folds | 1.28-1.67 folds | 1.11-1.32 folds | 1.11-1.28 folds | 1.02-1.44 folds | 1.26-1.28 folds |
